Laboratory results reported in patent US4975538A, “Antibiotic sulfonylaminocarbonyl activated beta-lactams” (The Upjohn Company, priority 1989, dated 1990).
≈ marks a conversion by molar mass, not a printed value.

Assays:
Assay in all cases: Minimum Inhibitory Concentration (MIC), agar dilution in Mueller Hinton Agar
Type in all cases: cell-based
[1] = test system: Streptococcus Pyogenes; conditions: 20 h, culture number 152
Description: (§1) The compounds of this invention and their respective pharmaceutically acceptable salts have antibiotic activity against a variety of gram-negative bacteria including Escherichia coli, Klebsiella pneumoniae, and Pseudomonas aeruginosa. The compounds are useful for treating bacterial infections in animals, including and most preferably humans. Compounds of the invention are tested for in vitro antimicrobial activity using standard testing procedures such as the determination of minimum inhibitory concentration (MIC) by methods described in "Methods for Dilution Antimicrobial Susceptibility Tests for Bacteria That Grow Aerobically" (M7-A) Published December 1985 by the National Committee for Clinical Laboratory Standards, 771 East Lancaster Avenue, Villanova, Pa. 19084. Briefly, MIC values are determined in unsupplemented Mueller Hinton Agar (MHA). The compounds tested are diluted serially into molten MHA at 47° C. The agar is poured into petri dishes and allowed to harden. The various bacteria used for testing are grown overnight on MHA at 35° C. and transferred to Tryptiease Soy Broth (TSB) until a turbidity of 0.5 McFarland standard is obtained. The bacteria are diluted one to twenty in TSB and inoculated on the plates (1 μl using a Steers replicator).

[2] = test system: Klebsiella Pneumoniae; conditions: 20 h, culture number 58
Description: as §1

[3] = test system: Streptococcus Faecalis; conditions: Enterococcus faecalis, 20 h; culture number 694
Description: as §1

[4] = test system: Escherichia Coli; conditions: 20 h
Description: as §1

[5] = test system: Klebsiella Oxytoca; conditions: 20 h
Description: as §1

[6] = test system: Streptococcus Pneumoniae; conditions: 20 h, culture number 41
Description: as §1

[7] = test system: Citrobacter Freundli; conditions: 20 h, culture number 3507
Description: as §1

[8] = test system: Serratia Marcescens; conditions: 20 h, culture number 6888
Description: as §1

[9] = test system: Staphylococcus Aureus; conditions: 20 h
Description: as §1

[10] = test system: Proteus Vulgaris; conditions: 20 h, culture number 9679
Description: as §1

[11] = test system: Pseudomonas Aeruginosa; conditions: 20 h
Description: as §1

[12] = test system: Enterobacter Cloacae; conditions: 20 h
Description: as §1

SMILES	MIC [1]	MIC [2]	MIC [3]	MIC ([4]; culture number 9379)	MIC ([4]; culture number 9380)	MIC ([4]; culture number 9451)	MIC ([5]; culture number 9383)	MIC ([5]; culture number 9384)	MIC [6]	MIC [7]	MIC [8]	MIC ([9]; culture number 3665)	MIC ([9]; culture number 6685)	MIC ([9]; culture number 9218)	MIC [10]	MIC ([11]; culture number 231)	MIC ([11]; culture number 9191)	MIC ([12]; culture number 9381)	MIC ([12]; culture number 9382)
CC(C)(O/N=C(\C(=O)N[C@H]1CN(C(=O)NS(=O)(=O)N2CCN(C(=O)c3cc(=O)c(O)c[nH]3)CC2=O)C1=O)c1csc(N)n1)C(=O)O [Compound E17]	16 mg/L (≈ 23.4 µM)	1 mg/L (≈ 1.46 µM)	> 64 mg/L	0.015 mg/L (≈ 0.0219 µM)	< 0.008 mg/L	0.015 mg/L (≈ 0.0219 µM)	0.5 mg/L (≈ 0.731 µM)	0.125 mg/L (≈ 0.183 µM)	> 64 mg/L	0.25 mg/L (≈ 0.366 µM)	0.125 mg/L (≈ 0.183 µM)	> 64 mg/L	> 64 mg/L	> 64 mg/L	0.25 mg/L (≈ 0.366 µM)	0.5 mg/L (≈ 0.731 µM)	0.5 mg/L (≈ 0.731 µM)	64 mg/L (≈ 93.6 µM)	1 mg/L (≈ 1.46 µM)
CC(C)(O/N=C(\C(=O)N[C@H]1CN(C(=O)NS(=O)(=O)N2CCN(C(=O)c3cc(=O)c(O)c[nH]3)NC2=O)C1=O)c1csc(N)n1)C(=O)O [Compound E18, Propanoic acid, 2-[[[1-(2-amino-4-thiazolyl)-2-[[1-[[[[1-[(1,4-dihydro-5-hydroxy-4-oxo-2-pyridinyl)carbonyl]tetrahydro-3-oxo-1,2,4-triazin-4(1H)-yl]sulfonyl]amino]carbonyl]-2-oxo-3-azetidinyl]amino]-2-oxoethylidene]amino]oxy]-2-methyl-[S-(Z)]-]	16 mg/L (≈ 23.4 µM)	0.5 mg/L (≈ 0.73 µM)	> 64 mg/L	< 0.008 mg/L	< 0.008 mg/L	< 0.008 mg/L	0.125 mg/L (≈ 0.183 µM)	0.03 mg/L (≈ 0.0438 µM)	> 64 mg/L	0.06 mg/L (≈ 0.0876 µM)	0.06 mg/L (≈ 0.0876 µM)	> 64 mg/L	> 64 mg/L	> 64 mg/L	0.06 mg/L (≈ 0.0876 µM)	0.25 mg/L (≈ 0.365 µM)	0.125 mg/L (≈ 0.183 µM)	16 mg/L (≈ 23.4 µM)	1 mg/L (≈ 1.46 µM)
Nc1nc(/C(=N/OCC(=O)O)C(=O)N[C@H]2CN(C(=O)NS(=O)(=O)N3CCN(C(=O)c4cc(=O)c(O)c[nH]4)CC3)C2=O)cs1 [Compound E19, Acetic acid, 2-[[[1-(2-amino-4-thiazolyl)-2-[[1-[[[[4-[(1,4-dihydro-5-hydroxy-4-oxo-2-pyridinyl)carbonyl]-1-piperazinyl]sulfonyl]amino]carbonyl]-2-oxo-3-azetidinyl]amino]-2-oxoethylidene]amino]oxy]-, [S-(Z)]-]	64 mg/L (≈ 99.8 µM)	8 mg/L (≈ 12.5 µM)	> 128 mg/L	0.25 mg/L (≈ 0.39 µM)	0.06 mg/L (≈ 0.0935 µM)	0.125 mg/L (≈ 0.195 µM)	64 mg/L (≈ 99.8 µM)	0.5 mg/L (≈ 0.779 µM)	> 128 mg/L	2 mg/L (≈ 3.12 µM)	1 mg/L (≈ 1.56 µM)	> 128 mg/L	> 128 mg/L	> 128 mg/L	4 mg/L (≈ 6.23 µM)	8 mg/L (≈ 12.5 µM)	8 mg/L (≈ 12.5 µM)	128 mg/L (≈ 200 µM)	16 mg/L (≈ 24.9 µM)
CC(C)(O/N=C(\C(=O)N[C@H]1CN(C(=O)NS(=O)(=O)N2CCN(NC(=O)c3cc(=O)c(O)cn3C3CC3)C2=O)C1=O)c1csc(N)n1)C(=O)O [Compound E42, Propanoic acid, 2-[[[1-(2-amino-4-thiazolyl)-2-[[1-[[[[3-[[(1-cyclopropyl-1,4-dihydro-5-hydroxy-4-oxo-2-pyridinyl)carbonyl]amino]-2-oxo-1-imidazolidinyl]sulfonyl]amino]carbonyl]-2-oxo-3-azetidinyl]amino]-2-oxoethylidene]amino]oxy]-2-methyl-, [S-(Z)]-]	64 mg/L (≈ 88.3 µM)	2 mg/L (≈ 2.76 µM)	> 64 mg/L	0.06 mg/L (≈ 0.0828 µM)	0.03 mg/L (≈ 0.0414 µM)	0.125 mg/L (≈ 0.172 µM)	1 mg/L (≈ 1.38 µM)	0.5 mg/L (≈ 0.69 µM)	> 64 mg/L	0.5 mg/L (≈ 0.69 µM)	0.5 mg/L (≈ 0.69 µM)	> 64 mg/L	> 64 mg/L	> 64 mg/L	2 mg/L (≈ 2.76 µM)	16 mg/L (≈ 22.1 µM)	16 mg/L (≈ 22.1 µM)	64 mg/L (≈ 88.3 µM)	4 mg/L (≈ 5.52 µM)
CC(C)(O/N=C(\C(=O)N[C@H]1CN(C(=O)NS(=O)(=O)n2nc(-c3cc(=O)c(O)c[nH]3)[nH]c2=O)C1=O)c1csc(N)n1)C(=O)O [E23 (a), propanoic acid, 2-[[[1-(2-amino-4-thiazolyl)-2-[[1-[[[[3-(1,4-dihydro-5-hydroxy-4-oxo-2-pyridinyl)-2,5-dihydro-5-oxo-1H-1,2,4-triazol-1-yl]sulfonyl]amino]carbonyl]-2-oxo-3-azetidinyl]amino]-2-oxoethylidene]amino]oxy]-2-methyl-, [S-(Z)]-]	16 mg/L (≈ 25 µM)	0.25 mg/L (≈ 0.39 µM)	> 64 mg/L	< 0.008 mg/L	< 0.008 mg/L	< 0.008 mg/L	0.03 mg/L (≈ 0.0468 µM)	0.03 mg/L (≈ 0.0468 µM)	> 64 mg/L	0.03 mg/L (≈ 0.0468 µM)	0.015 mg/L (≈ 0.0234 µM)	> 64 mg/L	> 64 mg/L	> 64 mg/L	0.03 mg/L (≈ 0.0468 µM)	0.5 mg/L (≈ 0.781 µM)	0.5 mg/L (≈ 0.781 µM)	4 mg/L (≈ 6.24 µM)	0.5 mg/L (≈ 0.781 µM)
